Test results: patent publication USRE37516E1, “Acetamide derivative having defined particle size” (Cephalon, Inc., priority 1994, dated 2002)
Several values for one entry are separate records, joined by “and”; a condition that tells them apart may be missing. Identical values can stand only once.

How the values were obtained:
[1] = Modafinil particle size analysis, Hiac/Royco Model 9064 sizing counter; type: physicochemical; settings: for MODAFINIL PARTICLE DIAMETER MEAN / MODAFINIL PARTICLE DIAMETER MEDIAN / MODAFINIL PARTICLE DIAMETER MODE: Hiac/Royco Model 9064, n = 4, +/− standard deviation; for STD DEVIATION BETWEEN MEAN, MEDIAN, MODE: derived from mean, median and mode particle diameter
Text: Our particle size measurements were obtained using a Hiac/Royco Model 9064 sizing counter following manufacturer instructions (400 μm aperture; saturated water with modafinil solution; PDAS program). A summary of the results of these measurements is presented in Table 1, which includes the mean, median and mode particle sizes for six representative lots of modafinil. For comparative purposes, the standard deviation values derived from the mean, median and mode measurements are provided, as are the ratio values of median:mean:mode. Lots E-A, E-B, E-C and E-D were among the so-called early lots, and Lots L-1 and L-2 were among the so-called late lots.
Measurements obtained using instruments and techniques developed by Hiac/Royko are preferred. A Hiac/Royco sizing counter utilizes the principle of light-extinction (obscuration) for particle size detection. The principle involved is that when a particle suspended in a liquid passes through a sensor microcell where a laser beam is directed through a window at the cell, the particles in the fluid block the laser beam from a light-extinction photodiode (photodetector) resulting in a loss of light intensity. This loss of light intensity detected by the photodetector produces an electrical pulse for each particle. These pulses are proportional in amplitude to the light intensity (light extinction) which is a measure of particle size.

[2] = Plasma modafinil concentration in dogs after single oral dose of lots with different particle size; type: in vivo; settings: single oral dose of 200 mg, capsule, 0 to 36 hours
Description: Given the disparity in results between the foreign and United States studies using what was presumed to be “identical” modafinil, additional non-human analyses were necessary prior to continuation of human clinical trials. Accordingly, animal studies in dogs were carried out to determine the in vivo pharmacokinetics of modafinil with different average particle size diameters, roughly designated as having “small” (Lot L-1) and “large” (Lots E-B and E-D) median particle sizes. Nine male dogs were randomly assigned, according to body weight to three dose groups. Each group was given a single oral dose of 200 of mg modafinil weekly for three weeks in a randomized, cross-over design, as described in Table 2.
After each weekly dose, blood samples (2 ml) were drawn from all animals by venepuncture predose (within one hour of dosing), and at 0.5, 1, 2, 3, 4, 6, 8, 10, 12, 18, 24, and 36 hours post-dose. Blood samples were collected in heparinized (lithium heparin) test tubes and centrifuged at 2,500 to 3,000 rpm. The plasma was drawn off with a glass pipette, and stored frozen (−20° C.) until analyzed. The plasma concentration of modafinil, and its acid and sulfone metabolites were simultaneously determined by high-pressure liquid chromatography, according to the method of Moachon et al. (J. Chromatag. B 654:91 (1994)).

[3] = test system: healthy males; assay: First United States Phase I double-blind ascending dose clinical study; type: in vivo; settings: humans, oral, 800 mg/day dose level
Text: While significant testing of modafinil had already been conducted outside the United States, new drug candidates, such as modafinil, typically undergo clinical research in the United States in order to corroborate the information obtained in foreign studies. The first United States clinical evaluation of modafinil was a double-blind, ascending dose study involving oral administration of modafinil to healthy males (i.e., physically and mentally healthy male subjects 18 to 50 years of age; average body weight of −10% to +15% of normal weight for age, height, frame and sex; 2101).
The planned doses for the first United States clinical trial were 200, 400, 600, 800, 1000, 1200 and 1400 mg/day of modafinil or placebo. These dose levels were based upon the safety profile observed during the foreign clinical testing of modafinil. Subsequent doses were given only when it was determined that the previously administered dose was safe and well tolerated. For example, the safety data for the 200 mg study dose was reviewed and assessed before other volunteers received the 400 mg dose.
In this first United States Phase I clinical study, modafinil from Lot L-1 was utilized. Complete data were obtained for three of the seven modafinil dose levels intended for testing, i.e., 200, 400, and 600 mg/day. […] These symptoms resolved without treatment or sequelae following drug discontinuation. […]

[4] = Dissolution rate of modafinil particles in deionized water (first experiment); type: physicochemical; settings: 50 mg in 500 ml deionized water, stirred, 0-60 minutes, HPLC; L-1 compared with E-D
Description: In the first experiment, 500 ml of deionized water was put in a 1-liter beaker and 50 mg of E-D or L-1 was added. The suspension was stirred constantly with a 5 cm Teflon-coated magnetic stir bar and a magnetic stir plate (Thermolyne model #546725). Samples of 1 ml each were taken at times 0, 1, 5, 10, 15, 20, 25, 30, 40, 50, and 60 minutes, with each sample being replaced with 1 ml of deionized water. The stir plate speed setting was “2” for the first 20 minutes, and “7” from 20 to 60 minutes Each sample was immediately filtered through a 0.45 μm filter, to remove undissolved particles. The filtered samples were assayed for modafinil, by high performance liquid chromatography, based upon the method of Moachon et al. (J. Chromatag. B 654:91 (1994)).

[5] = Modafinil particle size measurement, Coulter Counter TA II sizing counter; type: physicochemical
Text: The value ranges defined above are based upon measurements made utilizing technology and instruments developed by the Hiac/Royko Division of Pacific Scientific (11801 Tech Road, Silver Spring, Md. 20904, United States of America). As those in the art may appreciate, different instruments manufactured by different companies may provide different measurements for the same particles. For example, in a characteristic modafinil lot (Lot L-2), the mean, median, and mode particle measurements obtained using a Coulter Counter TA II sizing counter were 43, 31, and 29 microns, respectively. Using a Hiac/Royko Model 9064 sizing counter, the mean, median and mode particle measurements obtained for Lot L-2 were 18.75, 31.41 and 25.31 microns, respectively. These differences are presumably predicated upon the different approaches used in measuring particles of such diminutive sizes. Thus, the value ranges provided above are relative and are most preferably to be considered in view of utilization of instruments and operating systems manufactured by Hiac/Royko, for example, and preferably, the Hiac/Royko Model 9064 system sizing counter.
Following this assumption, we compared various parameters from lots of the bulk drug; such comparisons had not been conducted previously, given the assumption that the modafinil being tested in the United States was the “same” as that investigated outside of the United States. Particle size distribution of the bulk drug was among the parameters examined. We have performed modafinil particle size analyses with a Hiac/Royko Model 9064 sizing counter, a Coulter Counter sizing counter, by optical microscopy and by scanning electron microscopy.

[6] = test system: mice; settings: single administration; cited from earlier work
[7] = test system: patients or healthy volunteers; settings: doses tested in the foreign studies; cited from earlier work
[8] = test system: humans; settings: cited from earlier work
[9] = test system: monkeys; settings: single administration; cited from earlier work
[10] = test system: normal young males; assay: Second United States Phase I study (safety, tolerance, pharmacokinetics); type: in vivo, humans; settings: oral, titrated in 200 mg/day increments, Lots L-1 or L-2
Description: After the discrepancy between the foreign and first United States studies was resolved and determined to be related to the differences in particle sizes, a second Phase I study was conducted in the United States, to further determine the clinical safety, tolerance and pharmacokinetic properties of modafinil having a particle size as defined. The second study involved normal young males and an experimental design similar to the first United States study (described above). In the second study, all subjects began at 200 mg/day using modafinil from Lots L-1 or L-2. Dosage was then titrated, in 200 mg/day increments, up to the target dose.

**Q.** With `NC(=O)C[S+]([O-])C(c1ccccc1)c1ccccc1` (centres unmarked) [Lot E-A, 2-(benzhydrylsulfinyl)acetamide] as the compound, how does the “MODAFINIL PARTICLE DIAMETER MEAN” value ([1]; listed as E-A) read?
**A.** 34.60 +/− 5.21 μm

**Q.** What about the “MODAFINIL PARTICLE DIAMETER MEDIAN” value ([1]; listed as E-A) of the same compound?
**A.** 143.65 +/− 3.26 μm

**Q.** What about the “MODAFINIL PARTICLE DIAMETER MODE” value ([1]; listed as E-A) of the same compound?
**A.** 176.48 +/− 5.32 μm

**Q.** And the “STD DEVIATION BETWEEN MEAN, MEDIAN, MODE” value ([1]; listed as E-A)?
**A.** 74.27

**Q.** For `NC(=O)C[S+]([O-])C(c1ccccc1)c1ccccc1` (centres unmarked) [Lot E-B, 2-(benzhydrylsulfinyl)acetamide], which “MODAFINIL PARTICLE DIAMETER MEAN” value ([1]; listed as E-B) is on record?
**A.** 29.99 +/− 1.09 μm

**Q.** What about the “MODAFINIL PARTICLE DIAMETER MEDIAN” value ([1]; listed as E-B) of the same compound?
**A.** 89.10 μm and 89.10 +/− 4.28 μm

**Q.** What about the “MODAFINIL PARTICLE DIAMETER MODE” value ([1]; listed as E-B) of the same compound?
**A.** 78.59 +/− 2.60 μm

**Q.** What about the “STD DEVIATION BETWEEN MEAN, MEDIAN, MODE” value ([1]; listed as E-B) of the same compound?
**A.** 31.53

**Q.** What about the “peak plasma modafinil concentration (mean, nine dogs)” value ([2]; listed as E-B) of the same compound?
**A.** 8 µg/mL

**Q.** With `NC(=O)C[S+]([O-])C(c1ccccc1)c1ccccc1` (centres unmarked) [Lot E-C, 2-(benzhydrylsulfinyl)acetamide] as the compound, how does the “MODAFINIL PARTICLE DIAMETER MEAN” value ([1]; listed as E-C) read?
**A.** 28.27 +/− 4.10 μm

**Q.** And the “MODAFINIL PARTICLE DIAMETER MEDIAN” value ([1]; listed as E-C)?
**A.** 79.00 +/− 3.78 μm

**Q.** And the “MODAFINIL PARTICLE DIAMETER MODE” value ([1]; listed as E-C)?
**A.** 101.00 +/− 40.92 μm

**Q.** What about the “STD DEVIATION BETWEEN MEAN, MEDIAN, MODE” value ([1]; listed as E-C) of the same compound?
**A.** 37.30

**Q.** With `NC(=O)C[S+]([O-])C(c1ccccc1)c1ccccc1` (centres unmarked) [Lot E-D, 2-(benzhydrylsulfinyl)acetamide] as the compound, how does the “MODAFINIL PARTICLE DIAMETER MEAN” value ([1]; listed as E-D) read?
**A.** 22.14 +/− 0.76 μm

**Q.** And the “MODAFINIL PARTICLE DIAMETER MEDIAN” value ([1]; listed as E-D)?
**A.** 94.05 μm and 94.05 +/− 13.75 μm

**Q.** What about the “MODAFINIL PARTICLE DIAMETER MODE” value ([1]; listed as E-D) of the same compound?
**A.** 158.63 +/− 63.81 μm

**Q.** What about the “STD DEVIATION BETWEEN MEAN, MEDIAN, MODE” value ([1]; listed as E-D) of the same compound?
**A.** 68.28

**Q.** And the “peak plasma modafinil concentration (mean, nine dogs)” value ([2]; listed as E-D)?
**A.** 8 µg/mL

**Q.** Which results are given for `NC(=O)C[S+]([O-])C(c1ccccc1)c1ccccc1` [Lot L-1, 2-(benzhydrylsulfinyl)acetamide]?
**A.** MODAFINIL PARTICLE DIAMETER MEAN ([1]; listed as L-1): 21.40 +/− 2.52 μm; MODAFINIL PARTICLE DIAMETER MEDIAN ([1]; listed as L-1): 50.18 μm and 50.18 +/− 12.57 μm; MODAFINIL PARTICLE DIAMETER MODE ([1]; listed as L-1): 56.56 +/− 22.39 μm; STD DEVIATION BETWEEN MEAN, MEDIAN, MODE ([1]; listed as L-1): 18.73; peak plasma modafinil concentration (mean, nine dogs) ([2]; listed as L-1): 10 µg/mL; adverse events [3]: elevations in heart rate and blood pressure; dissolution rate [4]: faster dissolution rate

**Q.** For `NC(=O)C[S+]([O-])C(c1ccccc1)c1ccccc1` [Lot L-2, 2-(benzhydrylsulfinyl)acetamide], which “MODAFINIL PARTICLE DIAMETER MEAN” value ([1]; listed as L-2) is on record?
**A.** 18.75 +/− 1.89 μm

**Q.** What about the “MODAFINIL PARTICLE DIAMETER MEDIAN” value ([1]; listed as L-2) of the same compound?
**A.** 31.41 +/− 3.57 μm

**Q.** What about the “MODAFINIL PARTICLE DIAMETER MODE” value ([1]; listed as L-2) of the same compound?
**A.** 25.31 +/− 1.34 μm

**Q.** What about the mean particle measurement ([1]; Hiac/Royko Model 9064) of the same compound?
**A.** 18.75 microns

**Q.** And the median particle measurement ([1]; Hiac/Royko Model 9064)?
**A.** 31.41 microns

**Q.** What about the mode particle measurement ([1]; Hiac/Royko Model 9064) of the same compound?
**A.** 25.31 microns

**Q.** And the “STD DEVIATION BETWEEN MEAN, MEDIAN, MODE” value ([1]; listed as L-2)?
**A.** 6.36

**Q.** And the mean particle measurement [5]?
**A.** 43 microns

**Q.** And the median particle measurement [5]?
**A.** 31 microns

**Q.** What about the mode particle measurement [5] of the same compound?
**A.** 29 microns

**Q.** Which results are given for `NC(=O)C[S+]([O-])C(c1ccccc1)c1ccccc1` (centres unmarked) [modafinil, 2-(benzhydrylsulfinyl)acetamide]?
**A.** locomotor activity [6]: increased locomotor activity; hemodynamic changes in heart rate or blood pressure [7]: No statistically or clinically significant hemodynamic changes; treatment of idiopathic hypersomnia and narcolepsy [8]: successfully tested; nocturnal activity [9]: increased nocturnal activity; maximum tolerable dose (MTD) [10]: 600 mg/day; minimum intolerable dose [10]: 800 mg/day
